Assay results taken from paper PMC7773843 (Frontiers in Pharmacology, 2020).

Key:
cathepsin B (Cath B) = target: T1, cathepsin B (Cath B) (Homo sapiens, UniProt P07858); assay: ITC (KD […]); SPR KD […]; protease activity IC50 […]; type: binding
T1 construct: gene CTSB

PC-3 = assay: cells; set-up: anti-proliferative / cytotoxicity assay on cell lines, IC50; conditions: Homo sapiens, PC-3, read-out: IC50 (µM)
From the text: (§1) As shown in SPR and ITC data, the binding affinity of OC to Cath B was weaker than that of OC to HSPA8, justifying our selection of HSPA8 for further studies. To evaluate whether OC potentially binds to HSPA8 in cell lysates, we synthesized OC_biotin ([Wang et al., 2016]; Supplementary Figure S8) and performed a pulldown assay using avidin beads. We first examined whether OC_biotin has the same binding affinity with that of OC to HSPA8 using SPR and ITC assays. […] We then examined the anticancer activities of OC_biotin and OC in several cancer cell lines. As shown in Supplementary Table S4, OC_biotin exerted similar anti-proliferative activity to that of OC in multiple cancer cell lines, with IC50 ranging from 5 to 20 µM. […] By using HeLa cells that stably expressed GFP-LC3, we measured the GFP-LC3 puncta increment upon OC, OC_biotin and Hydroxychloroquine (HCQ) treatment. […] Avidin beads were used to perform the OC_biotin immunoprecipitation assay with cell lysates. Consistent with the SPR and ITC assays, we pulled down HSPA8 using cell lysates.

HCT116-DKO = assay: cells; set-up: anti-proliferative / cytotoxicity assay on cell lines, IC50; conditions: read-out: IC50 (µM)
From the text: as §1

MDA-MB-231 = assay: cells; set-up: anti-proliferative / cytotoxicity assay on cell lines, IC50; conditions: Homo sapiens, MDA-MB-231, read-out: IC50 (µM)
From the text: as §1

HL-7702 = assay: cells; set-up: anti-proliferative / cytotoxicity assay on cell lines, IC50; conditions: Homo sapiens, L02, read-out: IC50 (µM) HL-7702
From the text: as §1

Hela = assay: cells; set-up: anti-proliferative / cytotoxicity assay on cell lines, IC50; conditions: Homo sapiens, HeLa, read-out: IC50 (µM)
From the text: as §1

A549 = assay: cells; set-up: anti-proliferative / cytotoxicity assay on cell lines, IC50; conditions: Homo sapiens, A549, read-out: IC50 (µM)
From the text: as §1

PANC-1 = assay: cells; set-up: anti-proliferative / cytotoxicity assay on cell lines, IC50; conditions: Homo sapiens, PANC-1, read-out: IC50 (µM)
From the text: as §1

[1] = target: T2, heat shock 70 kDa protein 8 (HSPA8) (Homo sapiens, UniProt P11142); assay: ITC (KD […]); SPR KD […] ([…] also printed); thermal shift lowers Tm by ~[…]°C; type: binding
T2 construct: Full-length HSPA8, his-tagged, expressed in E. coli
T2 sequence (P11142 whole entry): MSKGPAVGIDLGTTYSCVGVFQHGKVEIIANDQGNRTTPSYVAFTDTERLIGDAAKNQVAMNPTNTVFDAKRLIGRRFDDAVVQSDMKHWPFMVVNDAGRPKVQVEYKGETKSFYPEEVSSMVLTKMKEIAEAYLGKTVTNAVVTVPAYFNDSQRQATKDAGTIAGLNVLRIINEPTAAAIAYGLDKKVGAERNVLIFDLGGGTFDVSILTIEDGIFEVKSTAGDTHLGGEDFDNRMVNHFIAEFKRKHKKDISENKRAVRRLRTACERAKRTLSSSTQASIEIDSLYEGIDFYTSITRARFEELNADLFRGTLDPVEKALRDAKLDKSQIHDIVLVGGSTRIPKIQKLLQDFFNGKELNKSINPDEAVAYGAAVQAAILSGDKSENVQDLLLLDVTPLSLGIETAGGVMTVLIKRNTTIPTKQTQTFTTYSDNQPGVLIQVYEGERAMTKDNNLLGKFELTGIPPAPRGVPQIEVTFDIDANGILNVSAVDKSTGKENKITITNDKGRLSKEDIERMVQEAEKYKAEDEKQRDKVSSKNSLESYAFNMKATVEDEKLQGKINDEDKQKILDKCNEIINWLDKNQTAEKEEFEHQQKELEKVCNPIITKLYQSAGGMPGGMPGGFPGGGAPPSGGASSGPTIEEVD

Kd (cathepsin B (Cath B)) [µM] | Kd [1] [µM] | Structure (SMILES) | IC50 (PC-3) [µM] | IC50 (HCT116-DKO) [µM] | IC50 (MDA-MB-231) [µM] | IC50 (HL-7702) [µM] | IC50 (Hela) [µM] | IC50 (A549) [µM] | IC50 (PANC-1) [µM]
25.6 | 6.2 | CC(C)=CCC/C(C)=C/C[C@@H]1C[C@]2(CC=C(C)C)C(=O)[C@@](CC=C(C)C)(C(=O)C(C(=O)c3ccc(O)c(O)c3)=C2O)[C@@]1(C)CCC=C(C)C [OC, Oblongifolin C] | 10.7 ± 0.6 | 12.2 ± 0.9 | 15.9 ± 1.1 | 5.16 ± 0.4 | 11 ± 1.2 | 7.49 ± 0.9 | 17.5 ± 0.9
– | – | COc1cc([C@@H]2c3cc4c(cc3[C@@H](O[C@@H]3O[C@@H]5CO[C@@H](C)O[C@H]5[C@H](O)[C@H]3O)[C@H]3COC(=O)[C@H]23)OCO4)cc(OC)c1O [Etoposide] | – | – | – | 1.42 ± 0.2 | – | – | 22.7 ± 1.7
